Entries after “also recorded” stand apart in the source; their conditions may differ. Where two headings read alike, the source gives them in different places. *: point of attachment. Cbz = O=C(OCc1ccccc1)*; CH2F = FC*
Columns and labels:
[1] = system: human RPE cells; settings: glycine 5 mM, LPS 5 μg/ml 6 h, ATP 25 μM
Experimental: (§1) MTS assays were performed using the CellTiter 96 AQueous One Solution Cell Proliferation Assay (Promega) according to the manufacturer's instructions. For examining the cytoprotective effect of glycine in Alu RNA induced cell death, human RPE cells were transfected with pNull/pAlu. At 6 h post-transfection the cells were incubated with complete media containing glycine (5 mM) or vehicle, and cell viability was assessed after 24 h. Similarly, human RPE cells primed with LPS (5 μg/ml for 6 h) were treated with ATP (25 μM) in the presence of glycine containing media (5 mM). 30 min post ATP cell viability was assessed as described above.

[2] = system: RPE; assay: pAlu-induced RPE degeneration in wild-type mice, inhibitors given intravitreously; type: in vivo; settings: WT mice, subretinal pAlu, inhibitor intravitreous, fundus photographs and ZO-1 flat mounts
Experimental: (§2) Subretinal injection and imaging. Subretinal injections (1 μL) were performed using a Pico-Injector (PLI-100, Harvard Apparatus). Plasmids were transfected in vivo using 10% Neuroporter (Genlantis). Fundus imaging was performed on a TRC-50 IX camera (Topcon) linked to a digital imaging system (Sony). RPE flat mounts were immunolabeled using antibodies against zonula occludens-1 (Invitrogen).
(§3) Retinal photographs of dilated mouse eyes were taken with a TRC-50 IX camera (Topcon) linked to a digital imaging system (Sony).
(§4) Human eyes fixed in 2-4% paraformaldehyde were prepared as eyecups, cryoprotected in 30% sucrose, embedded in optimal cutting temperature compound (Tissue-Tek OCT; Sakura Finetek), and cryosectioned into 10 μm sections. Depigmentation was achieved using 0.25% potassium permanganate and 0.1% oxalic acid. Immunohistochemical staining was performed with the rabbit antibody against NLRP3 (1:100, Sigma Aldrich) or rabbit antibody against Caspase-1 (prediluted, AbCam). Isotype IgG was substituted for the primary antibody to assess the specificity of the staining. Bound antibody was detected with biotin-conjugated secondary antibodies, followed by incubation with ABC reagent and visualized by Vector Blue (Vector Laboratories). Levamisole (Vector Laboratories) was used to block endogenous alkaline phosphatase activity. Slides were washed in PBS, counterstained with neutral red (Fisher Scientific), rinsed with deionized water, air dried, and then mounted in Vectamount (Vector Laboratories). Fluorescent labeling of human tissue was performed with the rabbit antibody against PYCARD (1:50, Clone N-15, Santa Cruz Biotechnology) Immunolabeling was visualized by fluorescently conjugated anti-rabbit secondary antibody (Invitrogen). Tissue autofluorescence was quenched by incubating the sections in 0.3% Sudan black (Fisher Scientific). Sections were mounted in Vectashield with DAPI (Vector Laboratories). Mouse RPE/choroid flat mounts were fixed with 4% paraformaldehyde or 100% methanol, stained with rabbit antibodies against human zonula occludens-1 (1:100, Invitrogen) and visualized with Alexa594 (Invitrogen). All images were obtained using the Leica SP-5 or Zeiss Axio Observer Z1 microscopes.
(§5) Subretinal injections (1 μL) in mice were performed using a Pico-Injector (PLI-100, Harvard Apparatus). In vivo transfection of plasmids coding for two different Alu sequences (pAlu) or empty control vector (pNull) (Bennett et al., 2008; Kaneko et al., 2011; Shaikh et al., 1997) was achieved using 10% Neuroporter (Genlantis). AAV1-BEST1-Cre (Alexander and Hauswirth, 2008) or AAV1-BEST1-GFP were injected at 1.0×10^11 pfu/mL and in vitro transcribed Alu RNA was injected at 0.3 mg/mL.
siRNAs formulated in siRNA buffer (20 mM KCL, 0.2 mM MgCl2 in HEPES buffer at pH 7.5; Dharmacon) or phosphate buffered saline (PBS; Sigma-Aldrich); the TLR4 antagonist Ultra Pure Rhodobacter sphaeroides LPS (LPS-RS, InvivoGen), a peptide inhibitor of MyD88 homodimerization IMG-2005 (IMGENEX), control inhibitor (IMGENEX), recombinant IL-18 (Medical & Biological Laboratories), neutralizing rat antibodies against mouse IL-1β (IMGENEX), neutralizing rat antibodies against mouse IL-18 (Medical & Biological Laboratories), isotype control IgGs (R&D Systems or eBioscience as appropriate), Caspase-1 inhibitor Z-WEHD-FMK (R&D Systems), Caspase control inhibitor Z-FA-FMK (R&D Systems), DPI (Enzo Life Sciences), Mito-TEMPO (Enzo Life Sciences), MitoQ and dTPP (both adsorbed to cyclodextrin and provided by M.P. Murphy, MRC Mitochondrial Biology Unit), and gp91ds-tat and scrambled gp91 ds-tat (both Anaspec), were dissolved in phosphate buffered saline (PBS; Sigma-Aldrich) or dimethyl sulfoxide (DMSO; Sigma-Aldrich), and injected into the vitreous humor in a total volume of 1 μL with a 33-gauge Exmire microsyringe (Ito Corporation). […] As a control, Luc siRNA-chol (17+2 nt) was used with identical dosages. […]

[3] = system: human RPE cells; settings: peptide 100 μM
Experimental: All cell cultures were maintained at 37° C. and 5% CO2. Primary mouse RPE cells were isolated as previously described (Yang et al., 2009) and grown in Dulbecco Modified Eagle Medium (DMEM) supplemented with 20% FBS and standard antibiotics concentrations. Primary human RPE cells were isolated as previously described (Yang et al., 2008) and maintained in DMEM supplemented with 10% FBS and antibiotics. HeLa cells were maintained in DMEM supplemented with 20% FBS and standard antibiotics concentrations. THP-1 cells were cultured in RPMI 1640 medium supplemented with 10% FBS and antibiotics.
as §1
MTS assays were performed using the CellTiter 96 AQueous One Solution Cell Proliferation Assay (Promega) according to the manufacturer's instructions.

[4] = system: RPE; assay: Alu RNA-induced RPE degeneration in wild-type mice, inhibitors given intravitreously; type: in vivo; settings: WT mice, subretinal Alu RNA, inhibitor intravitreous
Experimental: as §2, §3, §4, §5
siRNAs formulated in siRNA buffer (20 mM KCL, 0.2 mM MgCl2 in HEPES buffer at pH 7.5; Dharmacon) or phosphate buffered saline (PBS; Sigma-Aldrich); the TLR4 antagonist Ultra Pure Rhodobacter sphaeroides LPS (LPS-RS, InvivoGen), a peptide inhibitor of MyD88 homodimerization IMG-2005 (IMGENEX), control inhibitor (IMGENEX), recombinant IL-18 (Medical & Biological Laboratories), neutralizing rat antibodies against mouse IL-1β (IMGENEX), neutralizing rat antibodies against mouse IL-18 (Medical & Biological Laboratories), isotype control IgGs (R&D Systems or eBioscience as appropriate), Caspase-1 inhibitor Z-WEHD-FMK (R&D Systems), Caspase control inhibitor Z-FA-FMK (R&D Systems), DPI (Enzo Life Sciences), Mito-TEMPO (Enzo Life Sciences), MitoQ and dTPP (both adsorbed to cyclodextrin and provided by M.P. Murphy, MRC Mitochondrial Biology Unit), and gp91ds-tat and scrambled gp91 ds-tat (both Anaspec), were dissolved in phosphate buffered saline (PBS; Sigma-Aldrich) or dimethyl sulfoxide (DMSO; Sigma-Aldrich), and injected into the vitreous humor in a total volume of 1 μL with a 33-gauge Exmire microsyringe (Ito Corporation). […] As a control, Luc siRNA-chol (17+2 nt) was used with identical dosages.

[5] = system: NLRP3 and IL18 mRNAs; assay: NLRP3 and IL18 mRNA in human RPE cells (real-time RT-PCR); type: cell-based
Source text: Transcript abundance was quantified by real-time RT-PCR using an Applied Biosystems 7900 HT Fast Real-Time PCR system by the 2^−ΔΔCt method.
Total RNA was extracted from tissues or cells using Trizol reagent (Invitrogen) according to manufacturer's recommendations, DNase treated and reverse transcribed (QuantiTect, Qiagen). The RT products (cDNA) were amplified by real-time quantitative PCR (Applied Biosystems 7900 HT Fast Real-Time PCR system) with Power SYBR green Master Mix. Oligonucleotide primers specific for human IL1B (forward 5′-[…]-3′ and reverse 5′-[…]-3′), human IL18 (forward 5′-[…]-3′ and reverse 5′-[…]-3′), human NLRP3 (forward 5′-[…]-3′ and reverse 5′-[…]-3′), human PYCARD (forward 5′-[…]-3′ and reverse 5′-[…]-3′), human VDAC1 (forward 5′-[…]-3′ and reverse 5′-[…]-3′), human VDAC2 (forward 5′-[…]-3′ and reverse 5′-[…]-3′), human VDAC3 (forward 5′-[…]-3′ and reverse 5′-[…]-3′), human 18S rRNA (forward 5′-[…]-3′ and reverse 5′-[…]-3′), mouse Myd88 (forward 5′-[…]-3′ and reverse 5′-[…]-3′), mouse Nlrp3 (forward 5′-[…]-3′ and reverse 5′-[…]-3′), mouse Il18 (forward 5′-[…]-3′ and reverse 5′-[…]-3′), and mouse 18S rRNA (forward 5′-[…]-3′ and reverse 5′-[…]-3′) were used. The QPCR cycling conditions were 50° C. for 2 min, 95° C. for 10 min followed by 40 cycles of a two-step amplification program (95° C. for 15 s and 58° C. for 1 min). At the end of the amplification, melting curve analysis was applied using the dissociation protocol from the Sequence Detection system to exclude contamination with unspecific PCR products. […] For negative controls, no RT products were used as templates in the QPCR and verified by the absence of gel-detected bands. Relative expressions of target genes were determined by the 2^−ΔΔCt method.

| Compound | pAlu-induced RPE degeneration [2] | Alu RNA-induced RPE degeneration [4] | further results |
| --- | --- | --- | --- |
| NCC(=O)O [glycine] | – | – | human RPE cell death induced by LPS+ATP [1]: inhibited; human RPE cell death induced by LPS+ATP ([1]; listed as Glycine): inhibits |
| Cbz-IETD-CH2F | blocked RPE degeneration | – | pAlu-induced RPE degeneration ([2]; listed as Caspase-8 inhibitor): protects; pAlu-induced cytotoxicity in human RPE cells [3]: inhibited human RPE cell death; also recorded: protects |
| COC1=C(OC)C(=O)C(CCCCCCCCCC[P+](c2ccccc2)(c2ccccc2)c2ccccc2)=C(C)C1=O [MitoQ] | – | prevent; also recorded: blocked | – |
| c1ccc([I+]c2ccccc2)cc1 [DPI, diphenyliodonium] | protects | blocked | pAlu-induced NLRP3 and IL18 mRNA upregulation [5]: blocks; also recorded: blocked pAlu-induced NLRP3 and IL18 mRNA upregulation |
| CC1(C)CC(NC(=O)C[P+](c2ccccc2)(c2ccccc2)c2ccccc2)CC(C)(C)N1[O] [Mito-TEMPO] | – | blocked | Alu RNA-induced RPE degeneration ([4]; listed as MitoTempo): prevent |
| DRQIKIWFQNRRMKWKK [control peptide] | – | did not do so | – |

From patent US9453226B2, “Protection of cells from Alu-RNA-induced degeneration and inhibitors for protecting cells” (UNIVERSITY OF KENTUCKY RESEARCH FOUNDATION, priority 2011, dated 2016)
